According to patent US20100298141A1, “SUBSTITUTED PYRIDINE N-OXIDE HERBICIDES” (E. I. DU PONT DE NEMOURS AND COMPANY, priority 2007, published 2010):

How the values were obtained:
morningglory = test: Test A pre-/postemergence greenhouse test; format: in vivo, Ipomoea spp.; conditions: for Plant response rating, Morningglory: 0 to 100 scale where 0 is no effect and 100 is complete control; for Morningglory plant response rating: 0 to 100 scale
Outline: (§1)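 Test compounds in non-phytotoxic solvent with surfactant were applied as a preemergence soil spray to seeded loam/sand pots and, concurrently, postemergence to plants at 2–10 cm, one- to two-leaf stage. About ten days in greenhouse, then injury visually rated against untreated controls.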

barnyardgrass [1] = test: Test A pre-/postemergence greenhouse test; format: in vivo, Echinochloa crus-galli; conditions: for Plant response rating, Barnyardgrass: 0 to 100 scale where 0 is no effect and 100 is complete control; for Barnyardgrass plant response rating: 0 to 100 scale
Outline: as §1

rice = test: Test C flooded paddy test; format: in vivo, Oryza sativa; conditions: Flood
Outline: (§2)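 Flooded 3 cm over soil; compound into paddy water; depth kept constant. Greenhouse 13–15 d.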

duck salad = test: Test C flooded paddy test; format: in vivo, Heteranthera limosa; conditions: Flood
Outline: as §2

corn = test: Test A pre-/postemergence greenhouse test; format: in vivo, Zea mays; conditions: for Plant response rating, Corn: 0 to 100 scale where 0 is no effect and 100 is complete control; for Corn plant response rating: 0 to 100 scale
Outline: as §1

umbrella sedge = test: Test C flooded paddy test; format: in vivo, Cyperus difformis; conditions: Flood
Outline: as §2

redroot pigweed = test: Test A pre-/postemergence greenhouse test; format: in vivo, Amaranthus retroflexus; conditions: for Plant response rating, Pigweed: 0 to 100 scale where 0 is no effect and 100 is complete control; for Pigweed plant response rating: 0 to 100 scale
Outline: as §1

barnyardgrass [2] = test: Test C flooded paddy test; format: in vivo, Echinochloa crus-galli; conditions: Flood
Outline: as §2

giant foxtail = test: Test A pre-/postemergence greenhouse test; format: in vivo, Setaria faberi; conditions: for Plant response rating, Foxtail, Giant: 0 to 100 scale where 0 is no effect and 100 is complete control; for Foxtail, Giant plant response rating: 0 to 100 scale
Outline: as §1

crabgrass = test: Test A pre-/postemergence greenhouse test; format: in vivo, Digitaria sanguinalis; conditions: for Plant response rating, Crabgrass, Large: 0 to 100 scale where 0 is no effect and 100 is complete control; for Crabgrass, Large plant response rating: 0 to 100 scale
Outline: as §1

wheat = test: Test A pre-/postemergence greenhouse test; format: in vivo, Triticum aestivum; conditions: for Plant response rating, Wheat: 0 to 100 scale where 0 is no effect and 100 is complete control; for Wheat plant response rating: 0 to 100 scale
Outline: as §1

velvetleaf = test: Test A pre-/postemergence greenhouse test; format: in vivo, Abutilon theophrasti; conditions: for Plant response rating, Velvetleaf: 0 to 100 scale where 0 is no effect and 100 is complete control; for Velvetleaf plant response rating: 0 to 100 scale
Outline: as §1

[3] = Postemergence, 500 g ai/ha, 0 is no effect, 100 is complete control
[4] = Preemergence, 125 g ai/ha, 0 no effect, 100 complete control
[5] = 62 g ai/ha, scale 0 to 100 (0 no effect, 100 complete control)
[6] = 250 g ai/ha, scale 0 to 100, 0 no effect, 100 complete control, 13 to 15 days
[7] = Preemergence, 500 g ai/ha, 0 no effect, 100 complete control

Row | SMILES | Plant response rating, Morningglory (morningglory; Postemergence, 125 g ai/ha) | Morningglory plant response rating (morningglory; [3]) | Morningglory plant response rating (morningglory; [4]) | Plant response rating, Morningglory (morningglory; Preemergence, 500 g ai/ha) | Plant response rating, Barnyardgrass (barnyardgrass [1]; Postemergence, 125 g ai/ha) | Barnyardgrass plant response rating (barnyardgrass [1]; [3]) | Barnyardgrass plant response rating (barnyardgrass [1]; [4]) | Plant response rating, Barnyardgrass (barnyardgrass [1]; Preemergence, 500 g ai/ha) | Plant response rating, Rice (rice; [5]) | Plant response rating, Rice (rice; [6]) | Plant response rating, Ducksalad (duck salad; [5]) | Plant response rating, Ducksalad (duck salad; [6]) | Plant response rating, Corn (corn; Postemergence, 125 g ai/ha) | Corn plant response rating (corn; [3]) | Corn plant response rating (corn; [4]) | Plant response rating, Corn (corn; Preemergence, 500 g ai/ha) | Plant response rating, Sedge, Umbrella (umbrella sedge; [5]) | Plant response rating, Sedge, Umbrella (umbrella sedge; [6]) | Plant response rating, Pigweed (redroot pigweed; Postemergence, 125 g ai/ha) | Pigweed plant response rating (redroot pigweed; [3]) | other results
1 | Cc1cc[n+]([O-])c([S+]([O-])Cc2c(C(F)(F)F)nn(C)c2OC(C)C(F)(F)F)c1 (centres unmarked) [Compound 88] | 60 | 90 | 70 | 90 | 30 | 80 | 60 | 100 | 0 | 45 | 0 | 70 | 20 | 60 | 0 | 50 | 0 | 85 | 30 | 80 | Pigweed plant response rating (redroot pigweed; [4]): 90; Plant response rating, Pigweed (redroot pigweed; Preemergence, 500 g ai/ha): 100; Plant response rating, Barnyardgrass (barnyardgrass [2]; [5]): 0; Plant response rating, Barnyardgrass (barnyardgrass [2]; [6]): 30; Plant response rating, Foxtail, Giant (giant foxtail; Postemergence, 125 g ai/ha): 50; Foxtail, Giant plant response rating (giant foxtail; [3]): 90; Foxtail, Giant plant response rating (giant foxtail; [4]): 90; Plant response rating, Foxtail, Giant (giant foxtail; Preemergence, 500 g ai/ha): 100; Plant response rating, Crabgrass, Large (crabgrass; Postemergence, 125 g ai/ha): 50; Crabgrass, Large plant response rating (crabgrass; [3]): 80; Crabgrass, Large plant response rating (crabgrass; [4]): 20; Plant response rating, Crabgrass, Large (crabgrass; Preemergence, 500 g ai/ha): 90; Plant response rating, Wheat (wheat; Postemergence, 125 g ai/ha): 30; Wheat plant response rating (wheat; [3]): 70; Wheat plant response rating (wheat; [4]): 20; Wheat plant response rating (wheat; [7]): 80; Plant response rating, Velvetleaf (velvetleaf; Postemergence, 125 g ai/ha): 0; Velvetleaf plant response rating (velvetleaf; [3]): 50; Velvetleaf plant response rating (velvetleaf; [4]): 0; Velvetleaf plant response rating (velvetleaf; [7]): 90
2 | Cn1nc(C(F)(F)F)c(C[S+]([O-])c2cc(Cl)cc[n+]2[O-])c1OCC(F)(F)F (centres unmarked) [Compound 68] | 10 | 70 | 30 | 80 | 50 | 80 | 30 | 100 | 0 | 80 | 85 | 90 | 30 | 70 | 0 | 70 | 100 | 100 | 40 | 80 | Pigweed plant response rating (redroot pigweed; [4]): 40; Plant response rating, Pigweed (redroot pigweed; Preemergence, 500 g ai/ha): 100; Plant response rating, Barnyardgrass (barnyardgrass [2]; [5]): 0; Plant response rating, Barnyardgrass (barnyardgrass [2]; [6]): 20; Plant response rating, Foxtail, Giant (giant foxtail; Postemergence, 125 g ai/ha): 70; Foxtail, Giant plant response rating (giant foxtail; [3]): 90; Foxtail, Giant plant response rating (giant foxtail; [4]): 70; Plant response rating, Foxtail, Giant (giant foxtail; Preemergence, 500 g ai/ha): 100; Plant response rating, Crabgrass, Large (crabgrass; Postemergence, 125 g ai/ha): 50; Crabgrass, Large plant response rating (crabgrass; [3]): 90; Crabgrass, Large plant response rating (crabgrass; [4]): 40; Plant response rating, Crabgrass, Large (crabgrass; Preemergence, 500 g ai/ha): 100; Plant response rating, Wheat (wheat; Postemergence, 125 g ai/ha): 50; Wheat plant response rating (wheat; [3]): 60; Wheat plant response rating (wheat; [4]): 30; Plant response rating, Wheat (wheat; Preemergence, 500 g ai/ha): 70; Plant response rating, Velvetleaf (velvetleaf; Postemergence, 125 g ai/ha): 50; Velvetleaf plant response rating (velvetleaf; [3]): 60; Velvetleaf plant response rating (velvetleaf; [4]): 0; Plant response rating, Velvetleaf (velvetleaf; Preemergence, 500 g ai/ha): 60
